Laboratory results as given in patent publication US6822146B2, “Sulfonylurea-tolerant sunflower line M7” (priority 2000, dated 2004).
Counter-ions that a name gives are not always drawn.

Key:
M5M7 = assay: Test B greenhouse phytotoxicity, M5M7; assay type: in vivo, sunflower
Procedure: (§1) A greenhouse experiment was conducted to evaluate the spectrum of tolerance of three homozygous resistant mutants to various herbicides inhibiting acetolactate synthase (ALS) as their mode of action. The inbred lines tested were the 5th generation self-pollinated maintainers, M5M7, M5M11 and M5M12, as well as the 4th generation male sterile back-crosses BC4-M5M7, BC4-M5M11 and BC4-M5M12. Treatments of formulated herbicides were applied post-emergence at the 4-leaf stage. Application rates of the test herbicides were chosen to coincide with the rates commonly used in the crops for which they are registered. The application rate of imazethapyr was chosen to match the rate recommended to control parasitic weeds in sunflowers by L. García-Torres et al., Weed Technology 1995, 9, 819-824. Wild type H89 inbred sunflower was not included in this test, because the many of the tested herbicides are known to be efficacious in controlling volunteer sunflower as a weed. Treatments were replicated twice. […] A rating of 0% phytotoxicity means no crop injury.

M5M11 = assay: Test B greenhouse phytotoxicity, M5M11; assay type: in vivo, sunflower
Procedure: as §1

M5M12 = assay: Test B greenhouse phytotoxicity, M5M12; assay type: in vivo, sunflower
Procedure: as §1

BC4-M5M7 = assay: Test B greenhouse phytotoxicity, BC4-M5M7; assay type: in vivo, sunflower
Procedure: as §1

BC4-M5M11 = assay: Test B greenhouse phytotoxicity, BC4-M5M11; assay type: in vivo, sunflower
Procedure: as §1

BC4-M5M12 = assay: Test B greenhouse phytotoxicity, BC4-M5M12; assay type: in vivo, sunflower
Procedure: as §1

[1] = test system: homozygous progeny of the three mutant sources; assay type: in vivo, sunflower; settings: Test B application rates, post-emergence
Procedure: as §1

BC4-M5M7 × PHA155 = assay: Test C field phytotoxicity, BC4-M5M7 × PHA155; assay type: in vivo, sunflower
From the text: (§2) A rating of 0% phytotoxicity means no crop injury.

BC4-M5M12 × PHA155 = assay: Test C field phytotoxicity, BC4-M5M12 × PHA155; assay type: in vivo, sunflower
From the text: as §2

Orobanche cumana = assay: Test E control of Orobanche cumana in resistant sunflower hybrid; assay type: in vivo
Procedure: The effect of the various treatments was evaluated 35 days after sowing. The sunflower roots were cleaned by washing in water, and the presence of Orobanche nodules was determined visually and by weighing root wet mass in comparison to check plants free of Orobanche infestation. […] The nodules caused by Orobanche increased root weight, and a correlation (r=0.7) was found between visual scores and weight measurements. Thus the weighing technique could be used to corroborate visual efficacy scorings. Orobanche emergence was also scored but found to be less useful to evaluate treatment efficiency at the evaluation timing of this test.
(§3) Based on the results from Test D, a modified protocol was developed to include three timings of post-emergence treatment. The hybrid BC4-M5M12 (female parent)×PHA155 restorer line (male parent) described in Test C was used in this test. Various herbicide programs were tested using three replications. […] Seed coatings of these formulated herbicides were applied to 6 kg of seeds in such amount that considering the distribution of the coated seeds in each pot, the herbicide active ingredient (a.i.) application rates per hectare were as indicated.
(§4) The treatments were applied similar to the methods described for Test D. Pre-emergence applications were broadcast only, not soil incorporated. For pre-emergence application, the pots were sprayed using the high rates of the herbicides two days after sowing the sunflower seeds. Post-emergence treatments were applied at the 4-6 leaf stage of sunflower (corresponding to early stage of Orobanche attachment; identified as “T1”), the 6-8 leaf stage of sunflower (corresponding to the mid stage of Orobanche attachment; nodules <5 mm diameter; identified as “T2”) and 8-12 leaf stage of sunflower (corresponding to late stage of Orobanche attachment; identified as “T3”). The mid-stage applications included the high as well as low application rates of each herbicide.
(§5) For comparison were also included in this test other acetolactate synthase-inhibiting herbicides reported in the literature as giving good weed control of Orobanche (L. García-Torres et al., Weed Research 1994, 34, 395-402; L. García-Torres et al., Weed Technology 1995, 9, 819-824; J. Hershenhorn et al., Weed Technology 1998, 12, 108-114).

[2] = test system: BC4-M5M12 × PHA155 hybrid; assay: Test E injury to sunflower hybrid; assay type: in vivo; settings: in vivo
Procedure: as §3, §4, §5

H89A × M4M11 = assay type: in vivo, sunflower; settings: variety G; 30 g a.i./ha post-emergence
From the text: (§6) To generate the hybrids C, D and E, the fourth generation self-pollinated maintainer mutant lines M4M12, M4M11 and M4M7 were chemically sterilized by applying at the bud “star” flower stage a small amount of gibberellic acid solution to sterilize the pollen according to the general method described in Sunflower Science Technology, J. F. Carter ed. (Number 19 in the series “Agronomy”) pp. 339-386. This treatment enables maintainer plants to behave as CMS inbred lines and allows the production of heterozygous resistant hybrids, with the herbicide resistant source coming from the female side. Such crosses allowed evaluating the sexual effect of the mutation source when introduced on the female side of a cross as described in crosses C, D and E versus the male side of a cross as described in crosses F, G and H. Labels I, J and K identify third generation CMS mutant lines crossed with fourth generation maintainer lines to maintain the highly heritable mutant trait in a male sterile homozygous resistant environment. One skilled in sunflower breeding art understands the meaning of such crosses.
as §2

H89A × M4M12 = assay type: in vivo, sunflower; settings: variety F; 30 g a.i./ha post-emergence
From the text: as §6, §2

H89A × M4M7 = assay type: in vivo, sunflower; settings: variety H; 30 g a.i./ha post-emergence
From the text: as §6, §2

[3] = test system: Hybrid control: H89A × RHA274; assay type: in vivo, sunflower; settings: variety A; 30 g a.i./ha post-emergence
From the text: as §6, §2

[4] = test system: Inbred line control: H89A; assay type: in vivo, sunflower; settings: variety B; 30 g a.i./ha post-emergence
From the text: as §6, §2

GA-M4M12 × RHA274 = assay: Test A field trial, phytotoxicity, variety C; assay type: in vivo, sunflower; settings: variety C; 30 g a.i./ha post-emergence
From the text: as §6, §2

GA-M4M11 × RHA274 = assay: Test A field trial, phytotoxicity, variety D; assay type: in vivo, sunflower; settings: variety D; 30 g a.i./ha post-emergence
From the text: as §6, §2

GA-M4M7 × RHA274 = assay: Test A field trial, phytotoxicity, variety E; assay type: in vivo, sunflower; settings: variety E; 30 g a.i./ha post-emergence
From the text: as §6, §2

BC3-M4M12 = assay: Test A field trial, phytotoxicity, variety I; assay type: in vivo, sunflower; settings: variety I; 30 g a.i./ha post-emergence
From the text: as §6, §2

BC3-M4M11 = assay: Test A field trial, phytotoxicity, variety J; assay type: in vivo, sunflower; settings: variety J; 30 g a.i./ha post-emergence
From the text: as §6, §2

BC3-M4M7 = assay: Test A field trial, phytotoxicity, variety K; assay type: in vivo, sunflower; settings: variety K; 30 g a.i./ha post-emergence
From the text: as §6, §2

[5] = test system: Homozygous resistant inbred lines, BC3-M4M12 (I), BC3-M4M11 (J) and BC3-M4M7 (K); assay: Test A summary, homozygous resistant inbred lines; settings: Test A application rates
Procedure: In a small field trial, the sunflower varieties described in Table 4 were sprayed post-emergence with a variety of sulfonylurea herbicide treatments.
Broadcast post-emergence applications of formulated sulfonylurea herbicides were performed at the 6-leaf development stage using four randomly distributed replications. Application rates were chosen to match the usual use rates of these herbicides in the crops they are registered in Europe. All herbicides except for metsulfuron-methyl were sprayed in combination with Citowet® non-ionic ethoxylated alcohol at 0.25% volume of formulated product per volume of water applied per hectare.
The evaluation of the maximum (i.e. peak) injury to sunflower varieties by sulfonylurea herbicides was measured by visual ratings, which are listed in Table 5. A rating of 0% phytotoxicity means no crop injury. […] A rating of 100% means the complete destruction of all plants.

[6] = postemergence 6.25 g a.i./ha, 7 DAT
[7] = postemergence 6.25 g a.i./ha, 15 DAT
[8] = postemergence 6.25 g a.i./ha, 30 DAT
[9] = postemergence 12.5 g a.i./ha, 7 DAT
[10] = postemergence 12.5 g a.i./ha, 15 DAT
[11] = postemergence 12.5 g a.i./ha, 30 DAT

| SMILES | Maximum Phytotoxicity (M5M7; in vivo) | Maximum Phytotoxicity (M5M11; in vivo) | Maximum Phytotoxicity (M5M12; in vivo) | Maximum Phytotoxicity (BC4-M5M7; in vivo) | Maximum Phytotoxicity (BC4-M5M11; in vivo) | Maximum Phytotoxicity (BC4-M5M12; in vivo) | tolerance of the mutants [1] | other results |
| --- | --- | --- | --- | --- | --- | --- | --- | --- |
| COc1cc(OC)nc(NC(=O)NS(=O)(=O)N(C)S(C)(=O)=O)n1 [Amidosulfuron, amidosulfuron] | 52.5% | 60% | 45% | 47.5% | 57.5% | 55% | somewhat sensitive | – |
| CCOC(=O)c1ccccc1S(=O)(=O)NC(=O)Nc1nc(Cl)cc(OC)n1 [Chlorimuron-ethyl, chlorimuron-ethyl] | – | – | – | – | – | – | – | Phytotoxicity Rating After Treatment (BC4-M5M7 × PHA155; [6]): 83%; Phytotoxicity Rating After Treatment (BC4-M5M7 × PHA155; [7]): 73%; Phytotoxicity Rating After Treatment (BC4-M5M7 × PHA155; [8]): 67%; Phytotoxicity Rating After Treatment (BC4-M5M7 × PHA155; [9]): 85%; Phytotoxicity Rating After Treatment (BC4-M5M7 × PHA155; [10]): 83%; Phytotoxicity Rating After Treatment (BC4-M5M7 × PHA155; [11]): 83%; Phytotoxicity Rating After Treatment (BC4-M5M12 × PHA155; [6]): 70%; Phytotoxicity Rating After Treatment (BC4-M5M12 × PHA155; [7]): 80%; Phytotoxicity Rating After Treatment (BC4-M5M12 × PHA155; [8]): 68%; Phytotoxicity Rating After Treatment (BC4-M5M12 × PHA155; [9]): 80%; Phytotoxicity Rating After Treatment (BC4-M5M12 × PHA155; [10]): 90%; Phytotoxicity Rating After Treatment (BC4-M5M12 × PHA155; [11]): 88% |
| COC(=O)c1ccc(C(F)(F)F)nc1S(=O)(=O)NC(=O)Nc1nc(OC)cc(OC)n1 [Flupyrsulfuron-methyl-sodium] | 62.5% | 50% | 57.5% | 42.5% | 60% | 50% | somewhat sensitive | – |
| COC(=O)c1c(Cl)nn(C)c1S(=O)(=O)NC(=O)Nc1nc(OC)cc(OC)n1 [Halosulfuron-methyl, halosulfuron-methyl] | – | – | – | – | – | – | somewhat sensitive | Maximum Phytotoxicity (M5M7; M5M7, 45 g a.i./ha post-emergence 4-leaf stage): 50%; Maximum Phytotoxicity (M5M11; M5M11, 45 g a.i./ha post-emergence 4-leaf stage): 60%; Maximum Phytotoxicity (M5M12; M5M12, 45 g a.i./ha post-emergence 4-leaf stage): 60%; Maximum Phytotoxicity (BC4-M5M7; BC4-M5M7, 45 g a.i./ha post-emergence 4-leaf stage): 60%; Maximum Phytotoxicity (BC4-M5M11; BC4-M5M11, 45 g a.i./ha post-emergence 4-leaf stage): 65%; Maximum Phytotoxicity (BC4-M5M12; BC4-M5M12, 45 g a.i./ha post-emergence 4-leaf stage): 65% |
| CCc1cnc(C2=NC(C)(C(C)C)C(=O)N2)c(C(=O)O)c1 (stereo not shown) [Imazethapyr (ammonium salt), Imazethapyr] | 22.5% | 30% | 22.5% | 20% | 25% | 30% | marginal tolerance | relative efficacy in controlling Orobanche (Orobanche cumana; Test E rates, metsulfuron-methyl compared with tribenuron-methyl): less efficacious in controlling Orobanche; Control (Orobanche cumana; pre-emergence 40 g a.i./ha): 60%; Injury [2]: 0% |
| COC(=O)c1ccccc1S(=O)(=O)NC(=O)Nc1nc(OC(F)F)cc(OC(F)F)n1 [Primisulfuron-methyl, primisulfuron-methyl] | – | – | – | – | – | – | – | Maximum Phytotoxicity (H89A × M4M11): 73%; Maximum Phytotoxicity (H89A × M4M12): 66%; Maximum Phytotoxicity (H89A × M4M7): 69%; Maximum Phytotoxicity [3]: 100%; Maximum Phytotoxicity [4]: 100%; Maximum Phytotoxicity (GA-M4M12 × RHA274): 71%; Maximum Phytotoxicity (GA-M4M11 × RHA274): 75%; Maximum Phytotoxicity (GA-M4M7 × RHA274): 74%; Maximum Phytotoxicity (BC3-M4M12): 35%; Maximum Phytotoxicity (BC3-M4M11): 55%; Maximum Phytotoxicity (BC3-M4M7): 51%; tolerance of homozygous resistant lines compared with heterozygous hybrids [5]: the homozygous resistant lines were more tolerant; tolerance of homozygous resistant inbred lines I, J, K ([5]; triflusulfuron-methyl at 20 g a.i./ha): less susceptible than the standards |
| COc1cc(OC)nc(Sc2cccc(Cl)c2C(=O)O)n1 [Pyrithiobac-sodium] | 37.5% | 50% | 40% | 35% | 42.5% | 40% | somewhat sensitive | – |
| CCS(=O)(=O)c1nc2ccccn2c1S(=O)(=O)NC(=O)Nc1nc(OC)cc(OC)n1 [Sulfosulfuron] | 50% | 60% | 65% | 47.5% | 57.5% | 50% | somewhat sensitive | – |
